Data taken from patent US8901276B2, “Peptide reagents and methods for detection of colon dysplasia” (The Regents of the University of Michigan, priority 2010, dated 2014).
Where no end group is shown, it is not given here. The star is where a group is joined. FITC = O=C1OC2(c3ccc(O)cc3Oc3cc(O)ccc32)c2ccc(NC(=S)*)cc21

Columns and labels:
colonic adenomas = assay: In vivo imaging with multi-spectral scanning fiber endoscope; set-up: species or system CPC; Apc mice; details: for binding to colonic dysplasia/adenomas on fluorescence images / Average T/B: 100 μM topical, 5 min; for Average T/B: Multi-Spectral Scanning Fiber Endoscopy Results, mean ± SD; for range of T/B ratios: dysplasia versus normal appearing adjacent colonic mucosa
From the text: A scanning fiber endoscope system was adapted for fluorescence detection in three channels (RGB) using excitation at 440 (NDHB510APA, Nichia, Tokyo, Japan), 532 (FTEC532-V10TA0, Blue Sky Research, Milpitas, Calif.) and 635 (FMXL635-017TA0B, Blue Sky Research) nm using an RGB coupler (OZ Optics, Ottawa, Canada). The three laser sources are delivered simultaneously into the scanning fiber, and focused to the same point on the illumination plane using a custom lens assembly, as shown in the schematic in FIG. 2A. The laser power coming out of the distal tip of the endoscope is <2 mW for each channel, a level consistent with a non-significant risk (NSR) determination by the U.S. Food and Drug Administration (FDA, 21 CFR 812) for future human clinical studies. The amplitude of the spiral scanner was reduced to achieve a divergence angle of 70 deg (max 100 deg) to minimize noise in the periphery of the image. Fluorescence is collected by a ring of 12 step-index plastic optical fibers (POF) with numerical aperture (N.A.) of 0.63 and outer diameter of 250 μm (Toray Industries Inc, Tokyo, Japan).
(§1) The CPC;Apc mice were first imaged with white light using a non-scanning endoscope (Karl Storz Veterinary Endoscopy, Goleta, Calif.) to assess for the presence of colonic adenomas that have a size between ˜0.5 to 4 mm in diameter. Any adenomas were rinsed of debris including stool and mucous, by delivering tap water through a 3 Fr instrument channel. Then, the fluorescent-labeled peptides were delivered topically at a concentration of 100 μM in 1×PBS in a volume of 1 mL to the distal 4 cm of the colon and rectum. The peptides were incubated for 5 minutes and then the unbound peptides were rinsed away with tap water 3 times. The colon was inspected for any residual peptide, and when clean, the colon was insufflated with air and imaged with the multi-spectral scanning fiber endoscope.
Videos collected during endoscopy were exported as avi video files and converted into sequential png images using Apple QuickTime. White light and fluorescence images for each adenoma were analyzed in NIH Image J. The white light image was utilized to draw a region of interest (ROI) around the adenoma or adjacent normal appearing colonic mucosa which was then superimposed onto the fluorescence image. The mean fluorescence intensities were calculated for each ROI, and a target/background (T/B) ratio was calculated for each colonic adenoma and compared to the surrounding normal appearing mucosa.

normal colonic mucosa = assay: In vivo imaging with multi-spectral scanning fiber endoscope, normal mucosa; set-up: species or system mice; details: mouse
Description: as §1

HT29 cells [1] = assay: Flow cytometry of FITC-labeled peptides; type: cell-based, human; details: 10 μM, 60 min, 4° C., FITC channel
Description: (§2) Preferential binding of FITC-Peptide 2 to target cells was validated using flow cytometry. HT29 and Hs738.St/Int. (˜2×10^5) cells were grown, detached, and blocked as described above. These cells were incubated with the FITC-Peptide 2 or -Control peptide 2 (10 μM) for 60 min at 4° C. with continuous agitation. The cells were then washed (3×) with cold PBST followed by immediate fixing for 10 min. with 4% paraformaldehyde. The cells were washed again (1×) with PBS and resuspended in 1 mL of PBS. Flow cytometry was performed using FACSDiVa (BD® LSRII, BD Biosciences, San Jose, Calif.) and analyzed using Flowjo analysis program (Tree Star Inc., Ashland, Oreg.).
(§3) Preferential binding of the candidate peptide labeled with 5-FITC to the target and control cells was also validated using flow cytometry. HT29 and Hs738.St/Int. (˜2×10^5) cells were grown, detached, and blocked, as described above. These cells were incubated with the 5-FITC labeled candidate or control peptide (10 μM) for 60 min at 4° C. with continuous agitation. The cells were then washed 3× with cold PBST followed by immediate fixation for 10 min with 4% paraformaldehyde. The cells were washed again with PBS and resuspended in 1 mL of PBS. Flow cytometry was performed using FACSDiVa (BD® LSRII, BD Biosciences, San Jose, Calif.) and analyzed using Flowjo analysis program (Tree Star Inc. Ashland, Oreg.).

Hs738.St/Int. cells [2] = assay: Flow cytometry of FITC-labeled peptides; type: cell-based, human; details: 10 μM, 60 min, 4° C.
Description: as §2, §3

HT29 cells [3] = assay: Fluorescence microscopy of FITC-labeled peptides; type: cell-based, human; details: 10 μM, 15 min, 4° C.
Description: (§4) Preferential binding of the FITC-Peptide 2 and FITC-Control peptide 2 to target and non-target cells was also validated via fluorescence microscopy. HT29 and Hs738.St/Int. cells were grown in 22 mm2 cover slips with ˜80% confluence. Blocking of non-specific binding was performed by adding PBS/0.5% BSA for 30 min. The cells were then incubated with 10 μM of FITC-Peptide 2 or FITC-Control peptide 2 either at 4 or 37° C. for 15 min followed by 1 μg/mL Hoechst dye (Sigma Aldrich, St. Louis, Mo.) along with the peptide. The cells were washed with PBS for 3 times and fixed with 4% paraformaldehyde at room temperature for 10 min. After fixation, the cells were washed again with PBS (1×) and mounted with ProLong® Gold reagent (Invitrogen, Carlsbad, Calif.) and the fluorescence images were acquired with Leica Confocal system. (Leica Microsystems GMBH, Wetzlar, 35578 Germany)
In addition, the ability of the FITC-Peptide 2 peptide to internalize within the HT29 cells was tested. HT29 cells were incubated for 15 min. at either 4° C. or 37° C. in the presence of 10 μM FITC-Peptide 2.
(§5) Preferential binding of the FITC-labeled candidate and control peptides to the target and non-target cells was further validated via fluorescence microscopy. HT29 and Hs738.St/Int. cells were grown on cover slips to ˜80% confluence. Blocking of non-specific binding was performed by adding PBS/0.5% BSA for 30 min. The cells were then incubated with 10 μM of 5-FITC-labeled candidate or control peptide at either 4 or 37° C. for 15 min followed by staining with 1 μg/mL Hoechst dye (Sigma Aldrich, St. Louis, Mo.) along with the peptide. The cells were washed 3× with PBS and fixed with 4% paraformaldehyde at RT for 10 min. After fixation, the cells were washed again with PBS and mounted with ProLong Gold reagent (Invitrogen, Carlsbad, Calif.) and fluorescence images were collected with confocal microscopy (Leica TCS SP5 Microsystems, Bannockburn, Ill.).

Hs738.St/Int. cells [4] = assay: Fluorescence microscopy of FITC-labeled peptides; type: cell-based, human; details: 10 μM, 15 min
Description: as §4, §5

[5] = test system: human colon surgical specimens (normal mucosa, dysplastic adenomas, carcinoma); assay: Binding of synthetic peptides to human surgical specimens of colon cancer (Example 9); details: 10 μM, 15 min, RT
Description: Fresh frozen sections from human surgical specimens were cryosectioned with […] and used to localize peptide binding. The sectioned tissues were air dried and washed with PBS 1×. Sections were incubated with FITC labeled peptides (10 μM) for 15 min at RT. The sections were washed three times each for 1 min in PBS and fixed with 4% paraformaldehyde for 10 min. After fixing, the sections were washed again (1×) and mounted with ProLong® Gold reagent with DAPI (Invitrogen, Carlsbad, Calif.). The sections were imaged under a confocal microscope ([…]). All surgical specimens were obtained from the tissue procurement core of University of Michigan with approval from the Institutional Review Board (IRB).

[6] = test system: human colonic mucosa sections (normal, dysplasia, adenocarcinoma); assay: Peptide immunohistochemistry on frozen sections (Example 11); details: 10 μM, 15 min, RT
Description: All specimens were obtained with approval from the University of Michigan Institutional Review Board (IRB). Freshly resected specimens of human colonic mucosa were frozen in OCT and sectioned with 10 μm thickness. The sections were then air dried, washed with PBS, and incubated with the FITC-labeled peptides at a concentration of 10 μM for 15 min at RT. The sections were washed 3× for 1 min in PBS and fixed with 4% paraformaldehyde for 10 min. After fixation, the sections were washed again and mounted with ProLong Gold reagent with DAPI (Invitrogen, Carlsbad, Calif.). The sections were imaged under a confocal microscope (Leica TCS SP5 Microsystems, Bannockburn, Ill.). Adjacent sections were sent for routine histology. The intensity for each image was calculated using Matlab (Mathworks, Natick, Mass.).

HT29 cells [7] = assay: Competitive inhibition assay (bound phage counts); type: cell-based, human; details: up to 200 μM unlabeled peptide
Description: Bound phage counts were performed to observe the competitive inhibition effect of the synthetic candidate heptapeptide with its representative phage counterpart in triplicate. HT29 cells (5×10^6) were detached with enzyme free cell dissociation buffer and blocked with 1% BSA containing PBS for 30 min at 4° C. The cells were washed and incubated with phage (2×10^11) for 15 min. Then, the cells were washed with PBS and immediately incubated with different concentrations of unlabeled peptide ranging from 10 to 200 μM for an additional 15 min. Cells were washed 3× and the bound phages were recovered as described above in bound phage counts. The bound phages were then tittered and counted, and the relative inhibition rate was calculated. The inhibition activity of no-insert WT phage by synthetic candidate peptide and phage with unrelated synthetic control peptide were used as negative controls.

[8] = test system: human EMR specimens (normal mucosa, polypoid and non-polypoid dysplasia); assay: Stereomicroscopic validation on EMR specimens; details: 10 μmol/L, 5 min, mean±SEM
From the text: Binding of the candidate or control peptide to the dysplasia on freshly resected human specimens via endoscopic mucosal resection (EMR) was validated on fluorescence stereomicroscopy. Patients with previously diagnosed polypoid and non-polypoid dysplasia who were referred for EMR were recruited. Institutional review board approval was obtained from the VA Palo Alto Health Care System, and informed consent was acquired. After resection, the specimens were rinsed in PBS 3× to remove debris and mucous. An autofluorescence image was acquired before incubating with the peptide. Then, specimens were incubated with either the FITC-labeled candidate or control peptide at a concentration of 10 μmol/L for 5 min. The unbound peptide was rinsed off with PBS 3×. The mucosal surface of the specimen was oriented face up, and a dab of ink was applied to the upper border as a landmark to register the white light and fluorescence images with histology. A white light image was collected from the specimen with and without an overlying transparent grid that contains squares with dimensions of 1×1 mm^2. Fluorescence images were collected at 500 milliseconds per frame (with the overlying grid removed) using a stereomicroscope (Olympus SZX-16 equipped with Rolera camera; Olympus Corp, Tokyo, Japan) using 477 to 500 nm excitation and 500 to 630 nm emission. A correction to the fluorescence images was performed because the intensity at the center of the image is greater than that in the periphery due to differences in distance. A fluorescence image was collected from a solution of 10 μM FITC in a plate to provide a uniform target for calibration, allowing for quantitative analysis over the entire field of view. After the fluorescence intensities were corrected, lines along the length of the specimen spaced by 2-mm intervals in each image were identified using the grid from the white light image. The mean intensity from each 1×1 mm^2 interval along this length of tissue was calculated using Matlab and compared with histology. Histopathologic interpretation was performed by a gastrointestinal pathologist (HA) who classified the specimens stained with H&E as normal colonic mucosa, dysplasia, or adenocarcinoma. The histopathologic evaluation of the EMR specimens was conducted at VA Palo Alto Health Care System (AM) and classified as either dysplasia or normal mucosa.

## KCCFPAQ-DEAC: KCCFPAQ labeled with 7-Diethylaminocoumarin-3-carboxylic acid (DEAC) (cysteine pairing not given here; also: DEAC label, place not given here)
Colonic adenomas
  binding to colonic dysplasia/adenomas on fluorescence images: clearly displayed specific binding
  Average T/B: 1.71±0.19
  range of T/B ratios: 1.50-2.06
Normal colonic mucosa
  signal on normal colonic mucosa: minimal signal

## GGGAGGGAGGGK (FITC)-NH2 (GGGAGGGAGGGK(FITC)-NH2; N-terminus assumed; SMILES C[C@H](NC(=O)CNC(=O)CNC(=O)CN)C(=O)NCC(=O)NCC(=O)NCC(=O)N[C@@H](C)C(=O)NCC(=O)NCC(=O)NCC(=O)N[C@@H](CCCCNC(=S)Nc1ccc2c(c1)C(=O)OC21c2ccc(O)cc2Oc2cc(O)ccc21)C(N)=O) [FITC-Control peptide 2, glycine/alanine control peptide, reference compound]
HT29 cells [1]
  total HT29 cell population bound: 18.6%
HT29 cells [1]; listed as control peptide
  total HT29 cell population bound: 2.3%
Hs738.St/Int. cells [2]
  binding to Hs738.St/Int. cells on flow cytometry: bound minimally
HT29 cells [3]
  binding to the surface of HT29 cells: did not bind
Hs738.St/Int. cells [4]
  binding to Hs738.St/Int. cells on microscopy: did not bind
[5]
  binding to specimens classified from normal to carcinoma: not able to bind with any of the specimens
[6]
  staining of any specimen (normal, dysplasia, adenocarcinoma): did not stain any of the specimens
HT29 cells [7]
  inhibition of KCCFPAQ phage binding to HT29 cells: No inhibition
[8]; non-polypoid dysplasia
  fluorescence intensity on stereomicroscopy: 21.8±4.1 AU
[8]; normal mucosa
  fluorescence intensity on stereomicroscopy: 16.5±2.5 AU
[8]; polypoid dysplasia
  fluorescence intensity on stereomicroscopy: 14.0±3.0 AU

## AKPGYLS-TAMRA: AKPGYLS labeled with 5-Carboxytetramethylrhodamine (TAMRA) (also: TAMRA label, site not given here)
Colonic adenomas
  binding to colonic dysplasia/adenomas on fluorescence images: clearly displayed specific binding
  Average T/B: 1.67±0.12
  range of T/B ratios: 1.50-1.78
Normal colonic mucosa
  signal on normal colonic mucosa: minimal signal
